In ChEMBL document CHEMBL5505964, “HDAC/NAMPT dual inhibitors overcome initial drug-resistance in p53-null leukemia cells” (Eur J Med Chem, 2024):
Blank lines part the entries; values can stand above or below the compound they belong to.

Key:
[1] = biological target: T1, Nicotinamide phosphoribosyltransferase (Homo sapiens, UniProt P43490); experiment: Inhibition of N-terminal GST-tagged human recombinant NAMPT (2 to 491 residues) expressed in Escherichia coli expression system incubated for 30 mins by fluorescence based analysis
T1 sequence (P43490 whole entry, the tested form may be a part): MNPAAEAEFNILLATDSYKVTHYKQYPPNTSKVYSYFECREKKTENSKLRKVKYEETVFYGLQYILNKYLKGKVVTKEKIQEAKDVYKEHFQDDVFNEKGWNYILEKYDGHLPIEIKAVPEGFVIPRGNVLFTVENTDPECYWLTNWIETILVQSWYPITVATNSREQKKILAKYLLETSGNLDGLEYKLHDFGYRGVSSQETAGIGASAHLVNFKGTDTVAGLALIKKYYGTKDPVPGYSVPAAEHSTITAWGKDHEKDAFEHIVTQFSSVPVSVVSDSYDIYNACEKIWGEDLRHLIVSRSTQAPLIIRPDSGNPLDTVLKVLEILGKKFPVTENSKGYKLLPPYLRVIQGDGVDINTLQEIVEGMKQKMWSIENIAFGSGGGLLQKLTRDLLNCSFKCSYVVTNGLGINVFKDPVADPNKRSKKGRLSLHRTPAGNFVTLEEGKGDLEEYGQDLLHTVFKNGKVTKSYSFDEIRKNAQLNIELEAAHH

MV4-11 = experiment: cells; format: functional, cell-based; conditions: Homo sapiens; for IC50: MV4-11, 48 h; for GI50: MV4-11, time 48 hrs
Histone deacetylase 1 = Histone deacetylase 1 (Homo sapiens, UniProt Q13547); experiment: (§1) Inhibition of C-terminal 6XHis-tagged/FLAG-tagged full length human recombinant HDAC1 (1 to 482 residues) expressed in baculovirus-infected Sf9 cells using Boc-Lys-(acetyl)-AMC as substrate preincubated with enzyme for 1 hr followed by substrate addition and measured after 2 hrs by fluorescence analysis
Sequence of Histone deacetylase 1 (Q13547 whole entry, the tested form may be a part): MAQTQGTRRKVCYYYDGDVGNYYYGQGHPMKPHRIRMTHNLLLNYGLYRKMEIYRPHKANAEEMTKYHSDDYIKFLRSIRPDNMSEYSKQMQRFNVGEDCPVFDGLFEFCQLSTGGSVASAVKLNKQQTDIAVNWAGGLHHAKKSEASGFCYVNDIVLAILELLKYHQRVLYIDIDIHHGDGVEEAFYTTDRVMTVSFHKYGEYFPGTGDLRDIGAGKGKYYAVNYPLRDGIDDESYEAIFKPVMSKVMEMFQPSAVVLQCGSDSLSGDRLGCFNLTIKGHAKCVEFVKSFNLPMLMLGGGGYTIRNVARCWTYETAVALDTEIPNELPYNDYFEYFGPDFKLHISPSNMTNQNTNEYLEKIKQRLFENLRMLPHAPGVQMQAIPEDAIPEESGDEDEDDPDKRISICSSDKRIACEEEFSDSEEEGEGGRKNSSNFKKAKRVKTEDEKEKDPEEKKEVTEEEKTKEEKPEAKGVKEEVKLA

Histone deacetylase 2 = Histone deacetylase 2 (Homo sapiens, UniProt Q92769); experiment: biochemical; format: cell-based, Sf9
Sequence of Histone deacetylase 2 (Q92769 whole entry): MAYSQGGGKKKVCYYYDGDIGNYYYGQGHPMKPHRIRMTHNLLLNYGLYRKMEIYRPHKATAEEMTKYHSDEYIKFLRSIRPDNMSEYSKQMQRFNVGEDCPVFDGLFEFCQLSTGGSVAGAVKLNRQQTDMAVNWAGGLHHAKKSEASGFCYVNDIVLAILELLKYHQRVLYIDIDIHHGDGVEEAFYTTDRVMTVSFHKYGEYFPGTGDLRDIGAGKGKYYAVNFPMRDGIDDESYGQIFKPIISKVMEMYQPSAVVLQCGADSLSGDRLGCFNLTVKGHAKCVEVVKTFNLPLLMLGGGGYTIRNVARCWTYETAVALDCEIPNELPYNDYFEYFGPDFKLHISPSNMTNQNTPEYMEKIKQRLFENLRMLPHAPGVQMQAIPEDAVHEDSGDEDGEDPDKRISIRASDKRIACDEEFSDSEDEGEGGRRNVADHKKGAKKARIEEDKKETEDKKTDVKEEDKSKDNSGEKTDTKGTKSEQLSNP

[2] = biological target: Histone deacetylase 3/Nuclear receptor corepressor 2 (HDAC3/NCoR2) (Homo sapiens, UniProt O15379); experiment: as §1, with “His-tagged” for “6XHis-tagged/FLAG-tagged full length”, “HDAC3” for “recombinant HDAC1”, “428 residues)/N-terminal GST tagged human NCOR2 (395 to 489” for “482”
Sequence of Histone deacetylase 3/Nuclear receptor corepressor 2 (HDAC3/NCoR2) (O15379 whole entry): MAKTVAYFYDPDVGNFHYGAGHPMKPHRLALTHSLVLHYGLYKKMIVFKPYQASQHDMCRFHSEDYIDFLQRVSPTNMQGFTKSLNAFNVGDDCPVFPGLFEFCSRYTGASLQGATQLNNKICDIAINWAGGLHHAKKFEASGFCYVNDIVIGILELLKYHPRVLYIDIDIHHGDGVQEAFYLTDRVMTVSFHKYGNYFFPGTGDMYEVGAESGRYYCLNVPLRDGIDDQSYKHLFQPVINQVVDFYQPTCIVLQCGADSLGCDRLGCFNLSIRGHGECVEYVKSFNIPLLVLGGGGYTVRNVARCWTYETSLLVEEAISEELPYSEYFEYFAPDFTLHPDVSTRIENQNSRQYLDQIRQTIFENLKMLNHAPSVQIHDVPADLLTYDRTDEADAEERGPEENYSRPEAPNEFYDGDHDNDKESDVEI
Sequence of Histone deacetylase 3/Nuclear receptor corepressor 2 (HDAC3/NCoR2) (Q9Y618 whole entry, further chain): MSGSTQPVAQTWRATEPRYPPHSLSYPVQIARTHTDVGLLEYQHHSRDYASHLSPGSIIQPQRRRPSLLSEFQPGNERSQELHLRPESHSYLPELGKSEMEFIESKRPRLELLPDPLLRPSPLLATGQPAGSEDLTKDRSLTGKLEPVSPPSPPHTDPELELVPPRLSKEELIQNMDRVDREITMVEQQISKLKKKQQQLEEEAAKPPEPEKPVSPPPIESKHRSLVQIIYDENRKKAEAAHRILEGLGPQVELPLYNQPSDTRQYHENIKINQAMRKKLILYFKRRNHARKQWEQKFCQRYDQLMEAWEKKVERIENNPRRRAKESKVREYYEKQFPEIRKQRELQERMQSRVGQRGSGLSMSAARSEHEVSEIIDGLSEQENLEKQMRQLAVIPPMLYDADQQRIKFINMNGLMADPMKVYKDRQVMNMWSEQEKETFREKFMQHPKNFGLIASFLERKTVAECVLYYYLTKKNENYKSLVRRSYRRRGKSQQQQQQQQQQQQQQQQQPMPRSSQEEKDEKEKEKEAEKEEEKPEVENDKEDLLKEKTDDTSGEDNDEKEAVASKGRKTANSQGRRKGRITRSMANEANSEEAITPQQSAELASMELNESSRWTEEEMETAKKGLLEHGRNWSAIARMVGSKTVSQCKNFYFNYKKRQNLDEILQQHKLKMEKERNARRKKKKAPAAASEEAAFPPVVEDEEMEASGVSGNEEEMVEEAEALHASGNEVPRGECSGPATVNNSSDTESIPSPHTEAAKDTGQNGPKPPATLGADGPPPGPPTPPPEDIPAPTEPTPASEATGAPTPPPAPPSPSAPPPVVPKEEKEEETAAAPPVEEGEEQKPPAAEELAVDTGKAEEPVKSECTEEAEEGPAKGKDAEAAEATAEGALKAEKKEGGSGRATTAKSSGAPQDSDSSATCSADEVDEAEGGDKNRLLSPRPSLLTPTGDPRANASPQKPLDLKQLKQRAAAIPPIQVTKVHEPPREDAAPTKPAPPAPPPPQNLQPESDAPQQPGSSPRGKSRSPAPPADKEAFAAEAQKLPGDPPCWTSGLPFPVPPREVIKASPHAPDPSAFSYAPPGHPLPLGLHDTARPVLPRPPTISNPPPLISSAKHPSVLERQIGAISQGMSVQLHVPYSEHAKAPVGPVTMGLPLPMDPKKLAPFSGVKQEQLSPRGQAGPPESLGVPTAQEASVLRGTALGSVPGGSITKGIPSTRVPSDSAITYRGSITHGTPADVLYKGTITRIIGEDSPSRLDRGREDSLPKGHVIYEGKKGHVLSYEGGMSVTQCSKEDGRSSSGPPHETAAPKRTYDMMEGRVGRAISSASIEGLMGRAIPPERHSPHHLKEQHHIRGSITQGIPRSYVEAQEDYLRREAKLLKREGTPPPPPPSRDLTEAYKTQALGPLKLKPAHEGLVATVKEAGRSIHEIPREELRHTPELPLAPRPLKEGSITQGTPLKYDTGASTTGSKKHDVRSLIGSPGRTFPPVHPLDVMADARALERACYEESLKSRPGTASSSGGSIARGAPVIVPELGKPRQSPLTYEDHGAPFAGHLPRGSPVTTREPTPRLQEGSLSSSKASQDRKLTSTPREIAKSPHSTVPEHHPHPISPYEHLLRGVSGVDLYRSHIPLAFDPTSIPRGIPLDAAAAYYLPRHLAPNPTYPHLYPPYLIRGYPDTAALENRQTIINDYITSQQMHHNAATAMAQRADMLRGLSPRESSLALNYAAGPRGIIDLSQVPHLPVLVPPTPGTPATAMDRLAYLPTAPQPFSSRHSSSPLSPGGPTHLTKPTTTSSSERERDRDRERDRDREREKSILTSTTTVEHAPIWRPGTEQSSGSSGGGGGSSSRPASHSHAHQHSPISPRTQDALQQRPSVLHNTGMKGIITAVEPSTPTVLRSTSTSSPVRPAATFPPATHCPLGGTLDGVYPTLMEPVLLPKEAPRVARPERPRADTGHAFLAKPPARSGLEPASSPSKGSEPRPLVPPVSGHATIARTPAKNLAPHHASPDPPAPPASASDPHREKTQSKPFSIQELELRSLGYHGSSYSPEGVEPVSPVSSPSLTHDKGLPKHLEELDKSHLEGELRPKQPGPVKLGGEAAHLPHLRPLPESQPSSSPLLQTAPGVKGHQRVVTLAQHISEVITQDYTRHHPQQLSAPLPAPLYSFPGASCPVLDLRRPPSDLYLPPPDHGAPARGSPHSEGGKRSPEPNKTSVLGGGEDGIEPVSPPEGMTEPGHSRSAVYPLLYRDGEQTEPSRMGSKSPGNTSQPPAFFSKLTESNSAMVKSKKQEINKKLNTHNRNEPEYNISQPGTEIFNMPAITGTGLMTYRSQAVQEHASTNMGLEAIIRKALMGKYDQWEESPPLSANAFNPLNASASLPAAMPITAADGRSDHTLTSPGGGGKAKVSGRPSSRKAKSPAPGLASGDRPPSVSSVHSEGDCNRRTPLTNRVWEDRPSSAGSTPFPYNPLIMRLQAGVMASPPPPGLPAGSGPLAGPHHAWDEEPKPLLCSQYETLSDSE

HL-60 [3] = experiment: Antiproliferative activity against p53-null human HL-60 cells assessed as inhibition of cell growth incubated for 48 hrs by resazurin dye based fluorescence analysis; format: functional
Kasumi 1 = experiment: Antiproliferative activity against human Kasumi 1 cells harboring wild type p53 assessed as induction of cell death incubated for 48 hrs by resazurin dye based fluorescence analysis; format: functional; conditions: read-out: LD50 (the source's name)
[4] = Antiproliferative activity against p53-null human PL-21 cells assessed as induction of cell death incubated for 48 hrs by resazurin dye based fluorescence analysis; format: functional; conditions: read-out: LD50 (the source's name)
[5] = Antiproliferative activity against p53-null human MONO-MAC-1 cells assessed as induction of cell death incubated for 48 hrs by resazurin dye based fluorescence analysis; format: functional; conditions: read-out: LD50 (the source's name)
NB-4 = experiment: Antiproliferative activity against p53-null human NB4 cells assessed as induction of cell death incubated for 48 hrs by resazurin dye based fluorescence analysis; format: functional; conditions: read-out: LD50 (the source's name)
[6] = biological target: T1, Nicotinamide phosphoribosyltransferase; experiment: Inhibition of NAMPT (unknown origin)
HL-60 [7] = experiment: Antiproliferative activity against p53-null human HL-60 cells assessed as induction of cell death incubated for 48 hrs in presence of N-(4-(1-benzoylpiperidin-4-yl)butyl)-3-(pyridin-3-yl)acrylamide by resazurin dye based fluorescence analysis; format: functional; conditions: read-out: LD50 (the source's name)
HL-60 [8] = experiment: Antiproliferative activity against p53-null human HL-60 cells assessed as induction of cell death incubated for 48 hrs in presence of methyl-4-((1H-pyrrolo[3,2-c]pyridine-2-carboxamido)methyl)benzoate by resazurin dye based fluorescence analysis; format: functional; conditions: read-out: LD50 (the source's name)

Compound: CCCNNC(=O)c1ccc(CNC(=O)c2cc3cnccc3o2)cc1
IC50 (Histone deacetylase 1): 5.5 nM
IC50 (Histone deacetylase 2): 19.4 nM
IC50 [2]: 1.82 nM

Compound: CCCNNC(=O)c1ccc(CNC(=O)c2cc3ccccc3[nH]2)cc1
GI50 (MV4-11): 37.3 nM
GI50 (HL-60 [3]): 69.6 nM
CC50 (Kasumi 1): 284 nM
CC50 [4]: > 100000 nM
CC50 [5]: > 100000 nM
CC50 (NB-4): > 100000 nM

Compound: Cc1ncsc1C(=O)N1CCC(CCCCNC(=O)c2cc3cnccc3[nH]2)CC1
IC50 [6]: 5 nM

Compound: CCCNNC(=O)c1ccc(CNC(=O)c2cc3ccccc3o2)cc1
IC50 [2]: 0.43 nM

Compound: COC(=O)c1ccc(CNC(=O)c2cc3cnccc3[nH]2)cc1
IC50 (Histone deacetylase 1): > 20000 nM
IC50 (Histone deacetylase 2): > 20000 nM
IC50 [2]: > 20000 nM
IC50 [1]: 6870 nM
IC50 (MV4-11): > 50000 nM

Compound: CCCNNC(=O)c1ccc(CNC(=O)/C=C/c2ccccc2)cc1
GI50 (MV4-11): 16 nM
GI50 (HL-60 [3]): 121 nM
CC50 (Kasumi 1): > 100000 nM
CC50 [4]: > 100000 nM
CC50 [5]: > 100000 nM
CC50 (NB-4): > 100000 nM
CC50 (HL-60 [7]): 614 nM
CC50 (HL-60 [8]): 67.8 nM

Compound: O=C(CCCCCCC(=O)Nc1ccccc1)NO [VORINOSTAT]
IC50 [1]: > 20000 nM

Compound: CCCNNC(=O)c1ccc(CNC(=O)c2cc3cnccc3s2)cc1
IC50 [2]: 2.01 nM

Compound: O=C(/C=C/c1cccnc1)NCCCCC1CCN(C(=O)c2ccccc2)CC1 [DAPORINAD]
IC50 (Histone deacetylase 1): > 10000 nM
IC50 (Histone deacetylase 2): > 10000 nM
IC50 [2]: > 10000 nM
IC50 (MV4-11): 15.3 nM
GI50 (HL-60 [3]): 12.1 nM

Compound: CCCNNC(=O)c1ccc(CNC(=O)/C=C/c2ccccn2)cc1
IC50 [1]: > 20000 nM
IC50 (MV4-11): 85.2 nM

More lines, now with the values ahead:

IC50 [1]: > 20000 nM
IC50 (MV4-11): 52.4 nM
Compound: CCCNNC(=O)c1ccc(NC(=O)CCCCCCNC(=O)/C=C/c2cccnc2)cc1

IC50 (MV4-11): 87.7 nM
Compound: CCCNNC(=O)CCCCCCNC(=O)c1cc2cnccc2[nH]1

IC50 [1]: > 20000 nM
IC50 (MV4-11): 667 nM
Compound: CCCNNC(=O)CCCCCCCNC(=O)/C=C/c1cccnc1

IC50 [1]: 489 nM
IC50 (MV4-11): 2190 nM
Compound: CCCNNC(=O)c1ccc(CNC(=O)CCCCCCCNC(=O)/C=C/c2cccnc2)cc1

IC50 (Histone deacetylase 2): > 10000 nM
IC50 [1]: > 20000 nM
IC50 (MV4-11): > 50000 nM
Compound: CCCNNC(=O)CCNC(=O)/C=C/c1cccnc1

IC50 [1]: > 20000 nM
IC50 (MV4-11): 901 nM
Compound: CCCNNC(=O)CCCCNC(=O)/C=C/c1cccnc1

IC50 [1]: > 20000 nM
IC50 (MV4-11): 67.7 nM
Compound: CCCNNC(=O)c1ccc(CNC(=O)/C=C/c2ccncc2)cc1

IC50 [1]: > 20000 nM
IC50 (MV4-11): 174 nM
Compound: CCCNNC(=O)c1ccc(NC(=O)CCCCCCCNC(=O)/C=C/c2cccnc2)cc1

IC50 [1]: 261 nM
IC50 (MV4-11): 2240 nM
Compound: CCCNNC(=O)c1ccc(CNC(=O)CCCCCCNC(=O)/C=C/c2cccnc2)cc1

IC50 [1]: 261 nM
IC50 (MV4-11): 434 nM
Compound: CCCNNC(=O)CCCCCCNC(=O)/C=C/c1cccnc1
